Assay results as given in ChEMBL document CHEMBL1201862, “PubChem BioAssay data set” (2004).
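Five compound concentrations were applied to cells in 96-well plates for 48 hours; endpoints were derived by simple linear interpolation of the resulting dose-response curve. GI50 = concentration required for 50% inhibition of growth.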 The source made the active and inactive calls. Rule as the data show it: active = GI50 up to about 1.1 µM and inactive = higher.

Tests used:
Experiment in all cases: inhibition of tumour cell growth, NCI panel, 48 h
KM12 = test system: KM12
COLO 205 = test system: COLO 205
SW-620 = test system: SW-620
CCRF-CEM = test system: CCRF-CEM
SK-MEL-5 = test system: SK-MEL-5
MCF7 = test system: MCF7
SF-268 = test system: SF-268
T47D = test system: T47D
HCT-116 = test system: HCT-116
NCI/ADR-RES = test system: NCI/ADR-RES
NCI-H460 = test system: NCI-H460
UACC-62 = test system: UACC-62
HOP-92 = test system: HOP-92
HT-29 = test system: HT-29
U-251 = test system: U-251
786-0 = test system: 786-0
BT-549 = test system: BT-549
RXF 393 = test system: RXF 393
RPMI-8226 = test system: RPMI-8226
OVCAR-3 = test system: OVCAR-3
UO-31 = test system: UO-31
Hs-578T = test system: Hs-578T
MDA-MB-435 = test system: MDA-MB-435
HOP-62 = test system: HOP-62
NCI-H522 = test system: NCI-H522
HCT-15 = test system: HCT-15
NCI-H226 = test system: NCI-H226
MDA-MB-231 = test system: MDA-MB-231
SR = test system: SR
PC-3 = test system: PC-3
IGROV-1 = test system: IGROV-1
A549 = test system: A549
UACC-257 = test system: UACC-257
SN12C = test system: SN12C
K562 = test system: K562
MOLT-4 = test system: MOLT-4
SNB-75 = test system: SNB-75
CAKI-1 = test system: CAKI-1
DU-145 = test system: DU-145
NCI-H23 = test system: NCI-H23
SF-295 = test system: SF-295
ACHN = test system: ACHN
Malme-3M = test system: Malme-3M
SK-MEL-28 = test system: SK-MEL-28
SK-OV-3 = test system: SK-OV-3
M14 = test system: M14
OVCAR-5 = test system: OVCAR-5
OVCAR-4 = test system: OVCAR-4
SK-MEL-2 = test system: SK-MEL-2
MDA-N = test system: MDA-N
A498 = test system: A498
SF-539 = test system: SF-539
OVCAR-8 = test system: OVCAR-8
TK-10 = test system: TK-10
HCC 2998 = test system: HCC 2998
EKVX = test system: EKVX
LOX IMVI = test system: LOX IMVI
SNB-19 = test system: SNB-19

Measured: GI50

O=C1CC(=O)NC(NN2C(=O)CSC2c2ccccc2)=N1 (stereo not drawn)
> 100 µM: HCT-15
inactive: KM12 > 100 µM | COLO 205 > 100 µM | SW-620 > 100 µM | CCRF-CEM > 100 µM | SK-MEL-5 > 100 µM | MCF7 > 100 µM | SF-268 > 100 µM | T47D > 100 µM | HCT-116 > 100 µM | NCI/ADR-RES > 100 µM | NCI-H460 > 100 µM | UACC-62 > 100 µM | HOP-92 55.8 µM | HT-29 > 100 µM | U-251 > 100 µM | 786-0 > 100 µM | BT-549 > 100 µM | RXF 393 > 100 µM | RPMI-8226 > 100 µM | OVCAR-3 > 100 µM | UO-31 > 100 µM | Hs-578T > 100 µM | MDA-MB-435 > 100 µM | HOP-62 > 100 µM | NCI-H522 > 100 µM | NCI-H226 > 100 µM | MDA-MB-231 > 100 µM | SR > 100 µM | PC-3 > 100 µM | IGROV-1 > 100 µM | A549 > 100 µM | UACC-257 > 100 µM | SN12C > 100 µM | K562 > 100 µM | MOLT-4 > 100 µM | SNB-75 30.9 µM | CAKI-1 > 100 µM | DU-145 > 100 µM | NCI-H23 > 100 µM | SF-295 > 100 µM | ACHN > 100 µM | Malme-3M > 100 µM | SK-MEL-28 > 100 µM | SK-OV-3 > 100 µM | M14 > 100 µM | OVCAR-5 > 100 µM | OVCAR-4 > 100 µM | SK-MEL-2 > 100 µM | MDA-N > 100 µM | A498 > 100 µM | SF-539 > 100 µM | OVCAR-8 > 100 µM | TK-10 > 100 µM | HCC 2998 > 100 µM

CCOC(=O)c1cn2c(n1)sc1cc(Cl)cc(Cl)c12
> 100 µM: HCT-15
inactive: KM12 > 100 µM | COLO 205 > 100 µM | SW-620 > 100 µM | CCRF-CEM > 100 µM | SK-MEL-5 > 100 µM | MCF7 > 100 µM | SF-268 > 100 µM | T47D > 100 µM | HCT-116 > 100 µM | NCI/ADR-RES > 100 µM | NCI-H460 > 100 µM | UACC-62 > 100 µM | EKVX > 100 µM | HOP-92 > 100 µM | HT-29 > 100 µM | U-251 > 100 µM | 786-0 > 100 µM | BT-549 > 100 µM | RXF 393 > 100 µM | RPMI-8226 > 100 µM | OVCAR-3 > 100 µM | UO-31 > 100 µM | Hs-578T > 100 µM | MDA-MB-435 > 100 µM | HOP-62 > 100 µM | NCI-H522 > 100 µM | NCI-H226 > 100 µM | MDA-MB-231 > 100 µM | SR > 100 µM | PC-3 > 100 µM | IGROV-1 > 100 µM | A549 > 100 µM | LOX IMVI > 100 µM | UACC-257 > 100 µM | SN12C > 100 µM | K562 > 100 µM | MOLT-4 > 100 µM | SNB-75 > 100 µM | SNB-19 > 100 µM | CAKI-1 > 100 µM | DU-145 > 100 µM | NCI-H23 > 100 µM | SF-295 > 100 µM | ACHN > 100 µM | Malme-3M > 100 µM | SK-MEL-28 > 100 µM | SK-OV-3 > 100 µM | M14 > 100 µM | OVCAR-5 > 100 µM | OVCAR-4 > 100 µM | SK-MEL-2 > 100 µM | MDA-N > 100 µM | A498 > 100 µM | SF-539 > 100 µM | OVCAR-8 > 100 µM | TK-10 > 100 µM | HCC 2998 > 100 µM
